Source: article PMC10941181 (2024)

Key:
[1] = system: Cy5-Pu24T G4 (DNA, G4) AGCACTCTAGCTCTATGAGGGTGGTGAGGGTGGGGAAGG; experiment: microscale thermophoresis; details: 100 mM KCl, 10 mM potassium phosphate; pH 7.4, 0.05% Tween 20; 20 nM labelled DNA; GL 0.6 nM to 2.5 μM
[2] = system: R2-Pu24T (G4 DNA) (DNA, G4) AGCACTCTAGCTCTATGAGGGTGGTGAGGGTGGGGAAGG; experiment: 1H NMR imino shifts; details: K+, 10 mM potassium phosphate; pH 7.4, 298 K

Kd [1]: > 200 nM | binding [2]: yes
Structure (SMILES): Cc1cc(N2CCNCC2)nc(Nc2nc(C)c3ccc4c(c3n2)CCC4)n1
